Substitutions are numbered along the chain they refer to. Blank lines part the entries; values can stand above or below the molecule they belong to.
Assays:
[1] = Tetrazine hydrolytic stability in PBS; type: physicochemical; conditions: 800 μM, PBS buffer, 25° C.
From the text: A challenge to the development of catalytic methods for turning on the tetrazine ligation was the identification of a DHTz/Tz pair that would be stable in both oxidation states (FIG. 1, panel B). For most redox couples, either the DHTz is too readily oxidized in air (e.g., 1), or the Tz is too reactive toward water and other nucleophiles (e.g., 2). The inventors show here that the dipyridyl DHTz/Tz pair (3/4) has good stability in both states (FIG. 1, panel C). Dihydrotetrazines 3 are highly resistant toward background oxidation in organic solvents, and a number of derivatives have been synthesized and shown stable even to silica gel chromatography. […] Aqueous solutions of 3a were handled in glassware that had been first rinsed with 2.0 mM EDTA in PBS to remove adventitious metal impurities. After standing in the dark at 25° C. in PBS buffer, a solution of 3a was monitored by UV-vis and shown to retain 99 and 96% of the DHTz oxidation state over 30 min and 2.5 hours respectively. […] In PBS containing 10% mouse serum, 90% of 3a was retained in the DHTz oxidation state after 1 h. […]
Solutions (1 mL) containing 4a (800 μM) in PBS buffer were prepared in cuvettes from stock solutions. Tetrazine concentration was measured by recording the absorbance at 525 nm every 20 minutes while holding the cuvette at either 25 for 24 hours.

[2] = NIR photocatalytic oxidation/Diels-Alder/payload release (methylene blue, 660 nm LED)
Description: Encouraged by calculation, the inventors synthesized the compound 7, where p-nitrophenol serves as a model payload that can be readily monitored by UV and NMR (FIG. 7, panel A). To study the Diels-Alder/elimination sequence […], the inventors chose to oxidize 7 with Dess-Martin periodinane—a reagent that instantaneously oxidizes dihydrotetrazines to tetrazines. […] Upon LED irradiation (660 nm, 9.1 mW/cm^2) of 7 (28 μM) in MeOH in the presence of catalytic methylene blue (7 μM), complete oxidation/Diels-Alder/payload release within 15 minutes was observed (FIG. 7, panel B). In this photocatalytic reaction, aliquots by ESI-MS were analyzed, and intermediates 8 and 9 were not detected.
[…]. […] The reaction of 12 to produce 13 and 14 could also be promoted by irradiating a solution of 12 in 60% H2O/MeOH for 30 min with a 660 nm LED light source in the presence of catalytic amounts of methylene blue with monitoring by UV-Vis. The complete conversion to product 13 could be observed by UV-vis within 30 minutes.

[3] = molecular target: T1, APEX2 (SEQ ID NO:1) (Glycine max, UniProt Q43758, A134P/E112K/K14D/W41F); test: Oxidation of DHT by APEX2, UV-Vis initial rates and kinetic parameters; type: biochemical; conditions: PBS, 100 μM EDTA, first 100 s; for Initial rate of oxidation of DHT by APEX2 (SEQ ID NO: 1) + SOD: SOD 1 μM
T1 sequence (Q43758 1-250 A134P/E112K/K14D/W41F): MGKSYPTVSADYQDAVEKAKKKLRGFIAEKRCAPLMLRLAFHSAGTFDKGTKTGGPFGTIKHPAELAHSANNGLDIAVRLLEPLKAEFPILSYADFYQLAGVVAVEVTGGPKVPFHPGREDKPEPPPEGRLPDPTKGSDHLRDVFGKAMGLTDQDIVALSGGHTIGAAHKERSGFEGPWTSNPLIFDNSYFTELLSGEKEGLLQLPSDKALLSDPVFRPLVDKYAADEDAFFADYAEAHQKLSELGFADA
Description: (§1) UV-Vis and fluorescence measurements were conducted in quartz cuvettes. All reactions were conducted in phosphate buffered saline (PBS) containing 100 μM EDTA with a pH=7.4. The PBS was prepared by adding 25 mM phosphate salts (Na2HPO4 and NaH2PO4), 100 mM NaCl, 100 μM EDTA to DI water. EDTA was added to quench free metals that can oxidize DHT. The buffer was pH adjusted to 7.4 using 1 mM HCl and 1 mM NaOH. UV experiments were stirred at 25° C. in a temperature-controlled cuvette holder of the spectrophotometer. Solutions of 15 or 16 were prepared from methanol stock solutions.
15 or 16 (60 μM) from methanol stock solutions was added to PBS containing 100 μM EDTA. After 10s, APEX2 (SEQ ID NO:1) (275 nM) was dosed in and oxidation was monitored at 325 nm for 15 and 285 nm for 16 at 60s intervals (FIG. 10B-C).
16 (15 μM) DHT from methanol stock solutions was added to PBS containing 100 μM EDTA. After 10s, APEX2 (SEQ ID NO:1) (275 nM) or HRP (15 nM) was dosed in and oxidation was monitored at 285 nm at 10s intervals (FIG. 10D)
(§2) SOD (1 μM) was added to PBS containing 100 μM EDTA. 15 or 16 (60 μM) was added from methanol stock solutions. After 10s, APEX2 (SEQ ID NO:1) or F41A APEX2 (275 nM) was dosed in and oxidation was monitored at 325 nm for 15 and 285 nm for 16 at 60s intervals.
(§3) The initial rate of oxidation was calculated from the first 100 seconds after APEX2 (SEQ ID NO:1) or F41A APEX2 was added ([…]). In the assays where SOD was added, SOD (1 μM) was added to PBS containing 100 μM EDTA and 15 or 16 was dosed in. 10 seconds later, APEX2 (SEQ ID NO:1) or F41A APEX2 ([…]) was added and the rate of oxidation was calculated from the first 100 seconds after APEX2 (SEQ ID NO:1) or F41A APEX2 ([…]) addition. The initial rate of oxidation was adjusted to background oxidation of DHT in PBS with 100 μM EDTA. Kinetic parameters (Table 2) were determined using GraphPad's Prism 6 software from the data presented below (Table 3-4).

[4] = molecular target: T2, F41A APEX2 (Glycine max, UniProt Q43758, A134P/E112K/K14D/W41A); test: Oxidation of DHT by F41A APEX2, UV-Vis initial rates and kinetic parameters; type: biochemical; conditions: for Initial rate of oxidation of DHT by F41A APEX2 + SOD: SOD 1 μM, PBS, 100 μM EDTA, first 100 s
T2 sequence (Q43758 1-250 A134P/E112K/K14D/W41A): T1 sequence (Q43758 1-250 A134P/E112K/K14D/W41F) with F41A
Description: as §1, §2, §3

tetrazine fidelity ([1]; 2 h): 98% | tetrazine fidelity ([1]; 24 h): 83%
SMILES: O=C(O)CCC(=O)Nc1ccc(-c2nnc(-c3ccccn3)nn2)nc1 [4a, 4-oxo-4-((6-(6-(pyridin-2-yl)-1,2,4,5-tetrazin-3-yl)pyridin-3-yl)amino)butanoic Acid]

SMILES: CCCCN(C(=O)/C=C/Oc1ccc([N+](=O)[O-])cc1)c1cccnc1C1=NNC(c2ccccn2)=NN1 [compound 7, (E)-N-butyl-3-(4-nitrophenoxy)-N-(2-(6-(pyridin-2-yl)-1,4-dihydro-1,2,4,5-tetrazin-3-yl)pyridin-3-yl)acrylamide]
time to complete oxidation/Diels-Alder/payload release ([2]; 28 μM in MeOH, methylene blue 7 μM, LED 660 nm 9.1 mW/cm^2): ≤ 15 min

SMILES: COCCOCCOCCOCCOCCOCCOCCOCCOc1ccc(C2=NNC(c3ncccc3N(C)C(=O)/C=C/Oc3ccc(N(CCCl)CCCl)cc3)=NN2)nc1 [compound 12, (E)-N-(2-(6-(5-(2,5,8,11,14,17,20,23-octaoxapentacosan-25-yloxy)pyridin-2-yl)-1,4-dihydro-1,2,4,5-tetrazin-3-yl)pyridin-3-yl)-3-(4-(bis(2-chloroethyl)amino)phenoxy)-N-methylacrylamide]
time to complete conversion to product 13 ([2]; 60% H2O/MeOH, 660 nm LED, catalytic methylene blue, UV-vis): ≤ 30 min

SMILES: CCCCNC(=O)C1=NNC(c2ccccn2)=NN1 [compound 16]
Initial rate of oxidation of DHT by APEX2 (SEQ ID NO: 1) + SOD ([3]; DHT 4 μM): 0.429 +/− 0.022 ×10^−8 M/s | Initial rate of oxidation of DHT by APEX2 (SEQ ID NO: 1) ([3]; DHT 5 μM): 0.319 +/− 0.056 ×10^−8 M/s | Initial rate of oxidation of DHT by APEX2 (SEQ ID NO: 1) ([3]; DHT 10 μM): 0.673 +/− 0.002 ×10^−8 M/s | Initial rate of oxidation of DHT by APEX2 (SEQ ID NO: 1) + SOD ([3]; DHT 10 μM): 1.011 +/− 0.170 ×10^−8 M/s | Initial rate of oxidation of DHT by APEX2 (SEQ ID NO: 1) ([3]; DHT 15 μM): 0.810 +/− 0.081 ×10^−8 M/s | Initial rate of oxidation of DHT by APEX2 (SEQ ID NO: 1) + SOD ([3]; DHT 15 μM): 1.662 +/− 0.004 ×10^−8 M/s | Initial rate of oxidation of DHT by APEX2 (SEQ ID NO: 1) ([3]; DHT 20 μM): 1.169 +/− 0.095 ×10^−8 M/s | Initial rate of oxidation of DHT by APEX2 (SEQ ID NO: 1) ([3]; DHT 30 μM): 1.131 +/− 0.182 ×10^−8 M/s | Initial rate of oxidation of DHT by APEX2 (SEQ ID NO: 1) + SOD ([3]; DHT 30 μM): 2.073 +/− 0.046 ×10^−8 M/s | Initial rate of oxidation of DHT by APEX2 (SEQ ID NO: 1) ([3]; DHT 40 μM): 1.427 +/− 0.265 ×10^−8 M/s | Initial rate of oxidation of DHT by APEX2 (SEQ ID NO: 1) + SOD ([3]; DHT 40 μM): 2.379 +/− 0.350 ×10^−8 M/s | Initial rate of oxidation of DHT by APEX2 (SEQ ID NO: 1) ([3]; DHT 45 μM): 1.376 +/− 0.071 ×10^−8 M/s | Initial rate of oxidation of DHT by APEX2 (SEQ ID NO: 1) + SOD ([3]; DHT 45 μM): 2.234 +/− 0.088 ×10^−8 M/s | Initial rate of oxidation of DHT by APEX2 (SEQ ID NO: 1) ([3]; DHT 50 μM): 1.438 +/− 0.017 ×10^−8 M/s | Initial rate of oxidation of DHT by APEX2 (SEQ ID NO: 1) + SOD ([3]; DHT 50 μM): 2.149 +/− 0.009 ×10^−8 M/s | Initial rate of oxidation of DHT by APEX2 (SEQ ID NO: 1) + SOD ([3]; DHT 55 μM): 2.503 +/− 0.210 ×10^−8 M/s | Initial rate of oxidation of DHT by APEX2 (SEQ ID NO: 1) ([3]; DHT 60 μM): 1.396 +/− 0.123 ×10^−8 M/s | Initial rate of oxidation of DHT by APEX2 (SEQ ID NO: 1) + SOD ([3]; DHT 60 μM): 2.376 +/− 0.450 ×10^−8 M/s | Initial rate of oxidation of DHT by APEX2 (SEQ ID NO: 1) + SOD ([3]; DHT 70 μM): 2.746 +/− 0.180 ×10^−8 M/s | Initial rate of oxidation of DHT by APEX2 (SEQ ID NO: 1) ([3]; DHT 75 μM): 1.766 +/− 0.080 ×10^−8 M/s | Initial rate of oxidation of DHT by APEX2 (SEQ ID NO: 1) ([3]; DHT 85 μM): 1.695 +/− 0.114 ×10^−8 M/s | Initial rate of oxidation of DHT by APEX2 (SEQ ID NO: 1) + SOD ([3]; DHT 90 μM): 2.491 +/− 0.032 ×10^−8 M/s | Initial rate of oxidation of DHT by F41A APEX2 + SOD ([4]; DHT 5 μM): 0.334 +/− 0.010 ×10^−8 M/s | Initial rate of oxidation of DHT by F41A APEX2 + SOD ([4]; DHT 10 μM): 0.642 +/− 0.035 ×10^−8 M/s | Initial rate of oxidation of DHT by F41A APEX2 + SOD ([4]; DHT 15 μM): 1.124 +/− 0.034 ×10^−8 M/s | Initial rate of oxidation of DHT by F41A APEX2 + SOD ([4]; DHT 20 μM): 2.132 +/− 0.035 ×10^−8 M/s | Initial rate of oxidation of DHT by F41A APEX2 + SOD ([4]; DHT 25 μM): 2.568 +/− 0.131 ×10^−8 M/s | Initial rate of oxidation of DHT by F41A APEX2 + SOD ([4]; DHT 30 μM): 2.129 +/− 0.076 ×10^−8 M/s | Initial rate of oxidation of DHT by F41A APEX2 + SOD ([4]; DHT 35 μM): 3.078 +/− 0.025 ×10^−8 M/s | Initial rate of oxidation of DHT by F41A APEX2 + SOD ([4]; DHT 40 μM): 2.964 +/− 0.011 ×10^−8 M/s | Initial rate of oxidation of DHT by F41A APEX2 + SOD ([4]; DHT 50 μM): 3.867 +/− 0.049 ×10^−8 M/s | Initial rate of oxidation of DHT by F41A APEX2 + SOD ([4]; DHT 55 μM): 3.709 +/− 0.336 ×10^−8 M/s | Initial rate of oxidation of DHT by F41A APEX2 + SOD ([4]; DHT 75 μM): 4.549 +/− 0.150 ×10^−8 M/s | Initial rate of oxidation of DHT by F41A APEX2 + SOD ([4]; DHT 85 μM): 5.098 +/− 0.571 ×10^−8 M/s | factor of increase of rate of catalysis versus APEX2 (SEQ ID NO:1) ([4]; F41A APEX2 mutant with SOD): 5

— patent US11485987B2, “Methods for inducing bioorthogonal reactivity” (University of Delaware, priority 2015, dated 2022)
